The values below come from US20090280098A1 (priority 2006, published 2009).

For one experiment, the system named is cellooligosaccharide. Format: cell-based.
For experiment [1] the following is noted: cellobiose-added high sucrose food for 4 weeks; versus control rats; cited from earlier work.
For experiment [2], the system named is enzymatic activity for fatty acid degradation. As to conditions: cellobiose-added feedstuff; cited from earlier work.
In experiment [3] the test system is enzymatic activity for fatty acid synthesis. Conditions: cellobiose-added feedstuff; cited from earlier work.

Values joined by “and” are separate entries in the source; they are usually repeats but may differ in a detail not shown here. Identical values can stand only once.

Regarding Bifidobacterium, the “Amount of produced Lactic acid” value in the experiment with cellooligosaccharide is 1.01 mM and 1.08 mM.
Turning to `O=C[C@H](O)[C@@H](O)[C@H](O[C@@H]1O[C@H](CO)[C@@H](O)[C@H](O)[C@H]1O)[C@H](O)CO` [cellobiose], in experiment [1], the body fat ratio result was “reduced”; the “levels of total cholesterol and neutral fat” value was “reduced”. Also, in experiment [2], the “enzymatic activity for fatty acid degradation” value is “increased”. For the same compound, the “enzymatic activity for fatty acid synthesis” value in experiment [3] is “inhibited”.
